The subject of one data set is J774. Kind of data set: Cytotoxicity against mouse J774 cells assessed as decrease in cell viability after 24 hrs by resazurin based assay. Particulars: J774, 24 h.
In data set [1] the test system is Mycobacterium tuberculosis. Kind of data set: Antitubercular activity against Mycobacterium tuberculosis mc2 6230 after 7 days by broth microdilution assay. Type of data set: functional. Particulars: mc2 6230, 168 h.
A short description of data set [2]: Selectivity index, ratio of IC50 for mouse J774 cells to MIC50 for Mycobacterium tuberculosis mc2 6230. Type of data set: toxicity. The following applies: read-out: Selectivity Index.

Values after ≈ are worked out from the molar mass of the structure shown.

The IC50 is the concentration that gives 50% inhibition. Usually MIC50 stands for an inhibitory concentration at the 50% level, which refers to growth in some studies and to a panel of isolates in others. Read a high MIC50 as lower susceptibility.

In the case of `Cc1ncc([N+](=O)[O-])n1CCCCN1CCN(c2ccnc3cc(Cl)ccc23)CC1`, in the data set on J774, the half-maximal inhibitory concentration (IC50) was over 100 mg/L. This compound also came in with an MIC50 in data set [1] of 2.2 mg/L (≈ 5.13 µM). For the same compound, the selectivity ratio in data set [2] was over 45.3.
The corresponding values for `Cc1ncc([N+](=O)[O-])n1CCCCCN1CCCC1` are over 100 mg/L, 12.3 mg/L (≈ 46.2 µM) and over 8.1.
The corresponding values for `Cc1ncc([N+](=O)[O-])n1CCCCN1CCCCC1` are over 100 mg/L, 19.3 mg/L (≈ 72.5 µM) and over 5.2.
The like results for `Cc1ncc([N+](=O)[O-])n1CCCCCCN1CCN(c2ccnc3cc(Cl)ccc23)CC1` were, in that order, under 0.8 mg/L, 1.2 mg/L (≈ 2.63 µM) and under 0.66.
In the case of `Cc1ncc([N+](=O)[O-])n1CCCCCCBr`, in the data set on J774, the IC50 came out at 69.9 mg/L (≈ 241 µM). The compound further yielded an MIC50 in data set [1] of 4.9 mg/L (≈ 16.9 µM). Also, the selectivity ratio in data set [2] is 14.1.
The corresponding values for `Cc1ncc([N+](=O)[O-])n1CCCBr` are 54.8 mg/L (≈ 221 µM), 5.3 mg/L (≈ 21.4 µM) and 10.3.
`Clc1ccc2c(N3CCNCC3)ccnc2c1` had an MIC50 in data set [1] of 92 mg/L (≈ 371 µM).
The compound `NNC(=O)c1ccncc1` [ISONIAZID] showed an MIC50 in data set [1] of 0.019 mg/L (≈ 0.139 µM).
As for `Cc1ncc([N+](=O)[O-])n1CCCN1CCOCC1`, the IC50 in the data set with J774 is over 100 mg/L. This compound also gave an MIC50 in data set [1] of 18 mg/L (≈ 70.8 µM). The selectivity ratio in data set [2] is over 5.5.
On to `Cc1ncc([N+](=O)[O-])n1CCCN1CCCCC1`, for which the IC50 in the data set on J774 is over 100 mg/L. In data set [1], this compound returned an MIC50 of over 100 mg/L.
In the case of `Cc1ncc([N+](=O)[O-])n1CCCCN1CCCC1`, the IC50 in the data set with J774 is over 100 mg/L. Moreover, in data set [1], the MIC50 is 12.6 mg/L (≈ 49.9 µM). Besides, the selectivity ratio in data set [2] is over 8.
With `Cc1ncc([N+](=O)[O-])n1CCCCCN1CCOCC1`, in the data set with J774, the IC50 is over 100 mg/L. Also, the MIC50 in data set [1] was over 100 mg/L.
As for `Cc1ncc([N+](=O)[O-])n1CCCN1CCN(c2ccnc3cc(Cl)ccc23)CC1`, the IC50 in the data set on J774 is over 100 mg/L. Also, in data set [1], the MIC50 is 3.8 mg/L (≈ 9.16 µM). Further, in data set [2], the selectivity ratio is over 26.3.
For `Cc1ncc([N+](=O)[O-])n1CCCCCBr`, in the data set on J774, the IC50 turned out to be 83 mg/L (≈ 301 µM). In data set [1], this compound showed an MIC50 of 13.3 mg/L (≈ 48.2 µM). The selectivity ratio in data set [2] turned out to be 6.2.
Consider `Cc1ncc([N+](=O)[O-])n1CCCCCN1CCCCC1`, for which the IC50 with J774 was over 100 mg/L. The same compound had an MIC50 in data set [1] of 49 mg/L (≈ 175 µM). The selectivity ratio in data set [2] is over 2.
On to `Cc1ncc([N+](=O)[O-])n1CCCCCN1CCN(c2ccnc3cc(Cl)ccc23)CC1`, for which the IC50 with J774 stood at 28.9 mg/L (≈ 65.2 µM). This compound also came in with an MIC50 in data set [1] of 5.2 mg/L (≈ 11.7 µM). Also, the selectivity ratio in data set [2] is 5.6.
The corresponding values for `Cc1ncc([N+](=O)[O-])n1CCCN1CCCC1` are over 100 mg/L, 19.3 mg/L (≈ 81 µM) and over 5.2.
Take `Cc1ncc([N+](=O)[O-])n1CCCCBr`: in the data set with J774, the IC50 worked out at 61 mg/L (≈ 233 µM). For the same compound, the MIC50 in data set [1] stood at 17.7 mg/L (≈ 67.5 µM). Besides, the selectivity ratio in data set [2] amounted to 3.4.
Take `Cc1ncc([N+](=O)[O-])n1CCCCN1CCOCC1`: the IC50 with J774 was over 100 mg/L. The same compound registered an MIC50 in data set [1] of 23.1 mg/L (≈ 86.1 µM). Further, the selectivity ratio in data set [2] is over 4.3.

The record behind these values is ChEMBL document CHEMBL4219157, “Alkylated/aminated nitroimidazoles and nitroimidazole-7-chloroquinoline conjugates: Synthesis and anti-mycobacterial evaluation” (Bioorg Med Chem Lett, 2018).
